Like-named read-outs stand apart in the source and are kept apart here.
Experiments:
in vitro [1] = settings: human
[2] = tested on: SARS-CoV-2 reference strain; assay: microbe, parasite or virus in culture; assay type: cell-based; settings: Severe acute respiratory syndrome coronavirus 2, Calu-3
HEK293T-ACE2 = settings: HEK-293T cell line, within the 0-50µM range
in vitro [3] = settings: human; remark: listed apart in the source
SARS-CoV-2 = assay: Antiviral activity summarised over all the cell lines; assay type: cell-based
[4] = tested on: lentiviral vectors pseudotyped with the SARS-CoV-2 Spike protein (CoV-2 LV); assay: microbe, parasite or virus in culture; assay type: cell-based; settings: Severe acute respiratory syndrome coronavirus 2; 293-ACE2 cells (Table 1)
Caco2 = Caco2 cell line, within the 0-50µM range
Calu3 = Calu3 cell line, within the 0-50µM range
[5] = tested on: SARS-CoV-2 reference strain; assay: microbe, parasite or virus in culture; assay type: cell-based
VSVg pseudotyped LV = assay type: cell-based
in vitro [6] = settings: human; remark: listed apart in the source
[7] = molecular target: SARS-CoV-2 S-RBD(His)6 and human ACE2-Biot interaction (Severe acute respiratory syndrome coronavirus 2, UniProt P0DTC2); assay: AlphaLISA competition assay of the S-RBD/ACE2 interaction; assay type: binding, SARS-CoV-2 / human; settings: at 25 µM of drug; 3 nM of each protein
A549-ACE2 = settings: A549 cell line, within the 0-50µM range

`C(=C\c1nc2ccccc2s1)/c1cccc(N(c2cccc(/C=C/c3nc4ccccc4s3)c2)c2cccc(/C=C/c3nc4ccccc4s3)c2)c1` [TP m 3BTZ compound, Tris {3-(2-(benzothiazole-2-yl)vinylphenyl}amine)] gave a CC50 (in vitro [1]) of over 50 µM, an IC50 ([2]; Calu3 cells (Table 1), read-out: IC50) of 5000 nM and an IC50 ([2]; Calu3 cells, SARS-CoV-2 reference strain, 24 hours, read-out: concentration leading to 50% inhibition of the viral replication) of about 1000 nM. For the same compound, the “cytotoxicity (MTT assay)” value (HEK293T-ACE2) was “no or poor cytoxoxicity”, the CC50 (in vitro [3]) was over 50 µM and the IC50 (SARS-CoV-2; Severe acute respiratory syndrome coronavirus 2, among all the cell lines) was 250 to 5000 nM. For the same compound, the selectivity indexes (SARS-CoV-2; among all the cell lines) was over 10, the “selectivity index (SI)” value (SARS-CoV-2; based on apparent IC50 and CC50 in the different cell lines) was “higher than 50” and the IC50 [4] was 1000 nM. The “cytotoxicity (MTT assay)” value (Caco2) was “no or poor cytoxoxicity”, the “cytotoxicity (MTT assay)” value (Calu3) was “no or poor cytoxoxicity” and the “inhibition of the viral replication” value ([5]; A549-ACE2 cells, SARS-CoV-2 reference strain, 24 hours) was “induced an inhibition of the viral replication”. The IC50 ([5]; Severe acute respiratory syndrome coronavirus 2, A549-ACE2, A 549-ACE2 cells (Table 1)) was 2500 nM, the “effect on the VSVg LVs infectivity” value (VSVg pseudotyped LV) was “without significant effect” and the CC50 (in vitro [6]) was over 50 µM. The “inhibition of the formation of the RBD/ACE2 complex (AlphaLISA)” value [7] was 50% and the “cytotoxicity (MTT assay)” value (A549-ACE2) was “no or poor cytoxoxicity”.

From patent publication EP4173621A1 (priority 2021, dated 2023)
